Our source for the IC50 values is US9273058B2 (BRISTOL-MYERS SQUIBB COMPANY, priority 2013, dated 2016).

One assay addresses CK1ε (Homo sapiens, UniProt P49674). The experiment in a line: CK1ε kinase assay (Caliper LabChip electrophoretic separation of fluoresceinated peptide substrate and product). The class given is biochemical. Conditions: 200 pM CK1ε, 50 μM ATP, 1.5 μM peptide, 22 hours at room temperature. Put shortly:
(§1)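 Compounds, taken from 10 mM DMSO stocks, are titrated at eleven concentrations. Kinase reactions proceed for 22 hours at room temperature and are quenched with EDTA. Substrate and product are resolved electrophoretically, and IC50 values are fitted by non-linear regression.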

The next assay concerns the target CK1δ (Homo sapiens, UniProt P48730). The experiment in a line: CK1δ kinase assay (Caliper LabChip electrophoretic separation of fluoresceinated peptide substrate and product). It is filed as biochemical. To be noted: 200 pM CK1δ, 50 μM ATP, 1.5 μM peptide, 22 hours at room temperature. Put shortly:
as §1

Where two headings read alike, the source gives them in different places.

CK1δ, sequence (P48730 whole entry): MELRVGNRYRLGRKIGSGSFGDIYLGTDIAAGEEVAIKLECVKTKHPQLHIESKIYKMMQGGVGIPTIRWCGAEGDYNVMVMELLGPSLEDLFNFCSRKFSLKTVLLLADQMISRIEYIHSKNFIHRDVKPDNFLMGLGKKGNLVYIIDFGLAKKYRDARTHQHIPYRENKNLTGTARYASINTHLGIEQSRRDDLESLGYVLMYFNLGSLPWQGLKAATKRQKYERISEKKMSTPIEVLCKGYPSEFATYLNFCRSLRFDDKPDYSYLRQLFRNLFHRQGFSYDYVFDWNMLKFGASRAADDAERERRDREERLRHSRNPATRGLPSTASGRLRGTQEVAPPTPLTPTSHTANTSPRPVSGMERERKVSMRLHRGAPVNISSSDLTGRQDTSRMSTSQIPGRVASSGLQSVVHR
CK1ε, sequence (P49674 whole entry): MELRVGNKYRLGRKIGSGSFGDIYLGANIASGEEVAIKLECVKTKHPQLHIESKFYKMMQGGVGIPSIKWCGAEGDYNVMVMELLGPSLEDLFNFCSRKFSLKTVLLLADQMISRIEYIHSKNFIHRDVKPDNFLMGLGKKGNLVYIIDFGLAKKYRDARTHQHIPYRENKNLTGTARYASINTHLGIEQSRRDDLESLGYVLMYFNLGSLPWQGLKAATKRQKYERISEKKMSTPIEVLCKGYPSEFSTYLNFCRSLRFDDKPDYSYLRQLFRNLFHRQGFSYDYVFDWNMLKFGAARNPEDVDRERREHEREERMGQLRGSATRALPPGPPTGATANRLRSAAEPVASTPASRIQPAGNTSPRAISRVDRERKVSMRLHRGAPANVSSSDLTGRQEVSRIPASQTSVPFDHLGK

Regarding `CC12CC3(C)CC(C)(C1)CC(NC(=O)N1CCn4nc(-c5ccc(F)c(Cl)c5)c(C(N)=O)c4C1)(C2)C3` [Compound A65, 2-(3-Chloro-4-fluorophenyl)-N^5-((3s,5s,7s)-3,5,7-trimethyladamantan-1-yl)-6,7-dihydropyrazolo[1,5-a]pyrazine-3,5(4H)-dicarboxamide], the IC50 at CK1ε (read-out: CK1ε IC50 range) and on CK1δ (read-out: CK1δ IC50 range) was 0.01 to 10 nM throughout.
Take `CC12CC3CC(C)(C1)CC(NC(=O)N1CCn4nc(-c5ccc(F)c(Cl)c5)c(C(N)=O)c4C1)(C3)C2` [Compound A68, 2-(3-Chloro-4-fluorophenyl)-N^5-((1r,3R,5S,7r)-3,5-dimethyladamantan-1-yl)-6,7-dihydropyrazolo[1,5-a]pyrazine-3,5(4H)-dicarboxamide]: the IC50 on CK1ε (read-out: CK1ε IC50 range) and on CK1δ (read-out: CK1δ IC50 range) was 0.01 to 10 nM each time.
Take `CC(C)(C)NC(=O)N1CCn2nc(-c3cncnc3)c(C(N)=O)c2C1` [Compound 142, N^5-(tert-Butyl)-2-(pyrimidin-5-yl)-6,7-dihydropyrazolo [1,5-a]pyrazine-3,5(4H)-dicarboxamide]: the IC50 on CK1ε (read-out: CK1ε IC50 range) is 100 to 2000 nM; on CK1δ (read-out: CK1δ), 894 nM; at CK1δ (read-out: CK1δ IC50 range) it was 100 to 2000 nM.
`NC(=O)c1c(-c2cccc(F)c2)nn2c1CN(C(=O)NC1CCN(CCC(F)(F)F)CC1)CC2` [Compound 103, 2-(3-Fluorophenyl)-N^5-(1-(3,3,3-trifluoropropyl)piperidin-4-yl)-6,7-dihydropyrazolo[1,5-a]pyrazine-3,5(4H)-dicarboxamide]: the IC50 was 541 nM on CK1ε (read-out: CK1ε), 100 to 2000 nM at CK1ε (read-out: CK1ε IC50 range) and 70.6 nM on CK1δ (read-out: CK1δ).
On to `NC(=O)c1c(-c2cccc(F)c2)nn2c1CN(C(=O)NC1CC1)CC2` [Compound 7, N^5-Cyclopropyl-2-(3-fluorophenyl)-6,7-dihydropyrazolo[1,5-a]pyrazine-3,5(4H)-dicarboxamide], for which the IC50 at CK1ε (read-out: CK1ε IC50 range) and at CK1δ (read-out: CK1δ IC50 range) was 10 to 100 nM in each case.
Turning to `NC(=O)c1c(-c2cccc(Cl)c2)nn2c1CN(C(=O)NC1CC(F)(F)C1)CC2CF` (single isomer, unassigned) [Compound A113, 2-(3-Chlorophenyl)-N^5-(3,3-difluorocyclobutyl)-7-(fluoromethyl)-6,7-dihydropyrazolo[1,5-a]pyrazine-3,5(4H)-dicarboxamide], the IC50 on CK1ε (read-out: CK1ε IC50 range) and at CK1δ (read-out: CK1δ IC50 range) was 0.01 to 10 nM each time.
As to `NC(=O)c1c(-c2ccc(Cl)c(Cl)c2)nn2c1CN(C(=O)NC1(C(F)F)CC(F)(F)C1)CC2` [Compound 305, 2-(3,4-Dichlorophenyl)-N^5-(1-(difluoromethyl)-3,3-difluorocyclobutyl)-6,7-dihydropyrazolo[1,5-a] pyrazine-3,5(4H)-dicarboxamide], the IC50 on CK1ε (read-out: CK1ε IC50 range) and on CK1δ (read-out: CK1δ IC50 range) was 0.01 to 10 nM in each case.
As for `NC(=O)c1c(-c2cccc(Cl)c2)nn2c1CN(C(=O)NC13C4C5C6C4C1C6C53)CC2` (stereo not shown) [Compound A86, N^5-(Cuban-1-yl)-2-(3-chlorophenyl)-6,7-dihydropyrazolo[1,5-a]pyrazine-3,5(4H)-dicarboxamide], the IC50 at CK1ε (read-out: CK1ε IC50 range) and on CK1δ (read-out: CK1δ IC50 range) was 0.01 to 10 nM each time.
Consider `COCCNC(=O)C(C)(C)NC(=O)N1CCn2nc(-c3ccc(F)c(Cl)c3)c(C(N)=O)c2C1` [Compound 217, 2-(3-Chloro-4-fluorophenyl)-N^5-(1-((2-methoxyethyl)amino)-2-methyl-1-oxopropan-2-yl)-6,7-dihydropyrazolo[1,5-a] pyrazine-3,5(4H)-dicarboxamide], for which the IC50 on CK1ε (read-out: CK1ε IC50 range) lay in the range of 100 to 2000 nM; on CK1δ (read-out: CK1δ IC50 range), 10 to 100 nM.
On the same counts, the results for `N#Cc1ccc(C2(NC(=O)N3CCn4nc(-c5cccc(Cl)c5)c(C(N)=O)c4C3)CC(F)(F)C2)cc1` [Compound 315, 2-(3-Chlorophenyl)-N^5-(1-(4-cyanophenyl)-3,3-difluorocyclobutyl)-6,7-dihydropyrazolo[1,5-a]pyrazine-3,5(4H)-dicarboxamide] are 0.01 to 10 nM and 0.01 to 10 nM.
On the same counts, the results for `NC(=O)c1c(-c2cccc(Cl)c2)nn2c1CN(C(=O)NC13CCC(CC1)CC3)CC2` [Compound A79, N^5-(Bicyclo[2.2.2]octan-1-yl)-2-(3-chlorophenyl)-6,7-dihydropyrazolo[1,5-a]pyrazine-3,5(4H)-dicarboxamide] are 0.01 to 10 nM and 0.01 to 10 nM.
Regarding `NC(=O)c1c(-c2ccc(Cl)c(Cl)c2)nn2c1CN(C(=O)NC1CC3(C1)CC(F)(F)C3)CC2` [Compound 208, 2-(3,4-Dichlorophenyl)-N^5-(6,6-difluorospiro [3.3]heptan-2-yl)-6,7-dihydropyrazolo[1,5-a] pyrazine-3,5(4H)-dicarboxamide], the IC50 on CK1ε (read-out: CK1ε IC50 range) and on CK1δ (read-out: CK1δ IC50 range) was 0.01 to 10 nM throughout.
In the case of `NC(=O)c1c(-c2ccc(F)c(Cl)c2)nn2c1CN(C(=O)NC1CCC(F)(F)CC1)C[C@@H]2C(F)F` [Compound A14, (R)-2-(3-Chloro-4-fluorophenyl)-N^5-(4,4-difluorocyclohexyl)-7-(difluoromethyl)-6,7-dihydropyrazolo[1,5-a] pyrazine-3,5(4H)-dicarboxamide], the IC50 on CK1ε (read-out: CK1ε IC50 range) and at CK1δ (read-out: CK1δ IC50 range) was 0.01 to 10 nM in each case.
On to `CC1(NC(=O)N2CCn3nc(-c4cccc(Cl)c4)c(C(N)=O)c3C2)CC2(CC2)C1` [Compound 318, 2-(3-Chlorophenyl)-N^5-(5-methylspiro[2.3]hexan-5-yl)-6,7-dihydropyrazolo[1,5-a]pyrazine-3,5(4H)-dicarboxamide], for which the IC50 at CK1ε (read-out: CK1ε IC50 range) and at CK1δ (read-out: CK1δ IC50 range) was 0.01 to 10 nM in each case.
`CO[C@H]1C[C@H](NC(=O)N2CCn3nc(-c4ccc(Cl)c(Cl)c4)c(C(N)=O)c3C2)C1` [Compound 204, 2-(3,4-Dichlorophenyl)-N^5-((1r,3r)-3-methoxycyclobutyl)-6,7-dihydropyrazolo[1,5-a] pyrazine-3,5(4H)-dicarboxamide]: the IC50 on CK1ε (read-out: CK1ε IC50 range) and at CK1δ (read-out: CK1δ IC50 range) was 0.01 to 10 nM throughout.
Take `CN(C)C(=O)C(C)(C)NC(=O)N1CCn2nc(-c3ccc(F)c(Cl)c3)c(C(N)=O)c2C1` [Compound 218, 2-(3-Chloro-4-fluorophenyl)-N^5-(1-(dimethylamino)-2-methyl-1-oxopropan-2-yl)-6,7-dihydropyrazolo[1,5-a] pyrazine-3,5(4H)-dicarboxamide]: the IC50 on CK1ε (read-out: CK1ε IC50 range) was 10 to 100 nM; at CK1δ (read-out: CK1δ IC50 range) it was 0.01 to 10 nM.
Taken in the same sequence, the figures for `NC(=O)c1c(-c2cccc(Cl)c2)nn2c1CN(C(=O)NC13CCC(CF)(CC1)CC3)CC2` [Compound A78, 2-(3-Chlorophenyl)-N^5-(4-(fluoromethyl)bicyclo[2.2.2]octan-1-yl)-6,7-dihydropyrazolo[1,5-a]pyrazine-3,5(4H)-dicarboxamide] were 0.01 to 10 nM and 0.01 to 10 nM.
On the same counts, the results for `CC(C)(C)NC(=O)N1Cc2c(C(N)=O)c(-c3ccc(F)c(Cl)c3)nn2C(COC(F)F)C1` (stereo not shown) [Compound A21, N^5-(tert-Butyl)-2-(3-chloro-4-fluorophenyl)-7-((difluoromethoxy)methyl)-6,7-dihydropyrazolo[1,5-a]pyrazine-3,5(4H)-dicarboxamide] are 0.01 to 10 nM and 10 to 100 nM.
On the same counts, the results for `CC(C)(C)NC(=O)N1CCn2nc(-c3cccc(C(=O)O)c3)c(C(N)=O)c2C1` [Compound 122, 3-(5-(tert-Butylcarbamoyl)-3-carbamoyl-4,5,6,7-tetrahydropyrazolo[1,5-a]pyrazin-2-yl)benzoic acid] are 100 to 2000 nM and 100 to 2000 nM.
Turning to `NC(=O)c1c(-c2cccc(F)c2)nn2c1CN(C(=O)NC13CCC(C(F)F)(CC1)CC3)CC2` [Compound A94, N^5-(4-(Difluoromethyl)bicyclo[2.2.2]octan-1-yl)-2-(3-fluorophenyl)-6,7-dihydropyrazolo[1,5-a]pyrazine-3,5(4H)-dicarboxamide], the IC50 at CK1ε (read-out: CK1ε IC50 range) and at CK1δ (read-out: CK1δ IC50 range) was 0.01 to 10 nM each time.
Regarding `CO[C@H]1C[C@@H](NC(=O)N2CCn3nc(-c4cccc(Cl)c4)c(C(N)=O)c3C2)C1` [Compound 177, 2-(3-Chlorophenyl)-N^5-((1s,3s)-3-methoxycyclobutyl)-6,7-dihydropyrazolo[1,5-a] pyrazine-3,5(4H)-dicarboxamide], the IC50 at CK1ε (read-out: CK1ε IC50 range) and at CK1δ (read-out: CK1δ IC50 range) was 0.01 to 10 nM each time.
For `CC1(CNC(=O)N2CCn3nc(-c4ccc(F)c(Cl)c4)c(C(N)=O)c3C2)CC(F)(F)C1` [Compound 229, 2-(3-Chloro-4-fluorophenyl)-N^5-((3,3-difluoro-1-methylcyclobutyl)methyl)-6,7-dihydropyrazolo[1,5-a]pyrazine-3,5(4H)-dicarboxamide], the IC50 on CK1ε (read-out: CK1ε IC50 range) and on CK1δ (read-out: CK1δ IC50 range) was 0.01 to 10 nM in each case.
On to `CC1Cn2nc(-c3ccc(F)c(Cl)c3)c(C(N)=O)c2CN1C(=O)NC1(C)CC(F)(F)C1` (single isomer, unassigned) [Compound 344, 2-(3-Chloro-4-fluorophenyl)-N^5-(3,3-difluoro-1-methylcyclobutyl)-6-methyl-6,7-dihydropyrazolo[1,5-a]pyrazine-3,5(4H)-dicarboxamide], for which the IC50 at CK1ε (read-out: CK1ε IC50 range) and on CK1δ (read-out: CK1δ IC50 range) was 0.01 to 10 nM in each case.
Consider `CC(C)(C)NC(=O)N1Cc2c(C(N)=O)c(-c3ccc(F)c(Cl)c3)nn2C(COC(F)F)C1` (stereo not shown) [Compound A22, N^5-(tert-Butyl)-2-(3-chloro-4-fluorophenyl)-7-((difluoromethoxy)methyl)-6,7-dihydropyrazolo[1,5-a]pyrazine-3,5(4H)-dicarboxamide], for which the IC50 on CK1ε (read-out: CK1ε IC50 range) and on CK1δ (read-out: CK1δ IC50 range) was 0.01 to 10 nM each time.
On to `CC(C)(C)NC(=O)N1CCn2nc(-c3cccc(N)c3)c(C(N)=O)c2C1` [Compound 120, 2-(3-Aminophenyl)-N^5-(tert-butyl)-6,7-dihydropyrazolo [1,5-a]pyrazine-3,5(4H)-dicarboxamide], for which the IC50 on CK1ε (read-out: CK1ε IC50 range) is 100 to 2000 nM; at CK1δ (read-out: CK1δ IC50 range), 10 to 100 nM.
